Read-outs that look alike come from different tables or passages of the source.

One assay has as its target D231F^5.35 5-HT2AR (Homo sapiens, UniProt P28223, D231F). The assay is described as follows: Exploratory saturation radioligand binding at point-mutated 5-HT2AR. To be noted: membranes of transfected HEK293 cells (FIGS. 14A-14D).
The target of a further assay is T1, 5-HT2AR (Homo sapiens, UniProt P28223).
T1 construct: host or cells: HEK293, transient
The assay is described as follows: Radioligand binding (competitive displacement and saturation), cell membranes. To be noted: for Ki: pKi 5-HT2AR. The method, then:
(§1) Transfections were performed for 48 hours.

In another assay the target is T2, H1R (Homo sapiens, UniProt P35367).
T2 construct: host or cells: CHO, transient
T2 sequence (P35367 whole entry): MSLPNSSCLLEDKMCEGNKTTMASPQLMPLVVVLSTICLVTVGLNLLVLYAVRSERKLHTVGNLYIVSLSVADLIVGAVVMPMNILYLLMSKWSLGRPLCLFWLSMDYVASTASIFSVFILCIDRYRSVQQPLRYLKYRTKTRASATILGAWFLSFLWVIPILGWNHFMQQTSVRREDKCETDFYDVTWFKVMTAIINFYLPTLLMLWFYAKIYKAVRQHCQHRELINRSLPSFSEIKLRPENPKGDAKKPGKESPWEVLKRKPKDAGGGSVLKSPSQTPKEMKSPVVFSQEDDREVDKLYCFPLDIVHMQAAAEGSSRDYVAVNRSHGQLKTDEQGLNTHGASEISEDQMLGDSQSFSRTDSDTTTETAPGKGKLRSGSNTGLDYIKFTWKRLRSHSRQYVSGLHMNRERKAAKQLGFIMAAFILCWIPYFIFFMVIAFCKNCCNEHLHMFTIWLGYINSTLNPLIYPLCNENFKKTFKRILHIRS
The description is as above. Here is the method: as §1

Assay [1] concerns the target T3, 5-HT2CR (Homo sapiens, UniProt P28335).
T3 sequence (P28335 33-458): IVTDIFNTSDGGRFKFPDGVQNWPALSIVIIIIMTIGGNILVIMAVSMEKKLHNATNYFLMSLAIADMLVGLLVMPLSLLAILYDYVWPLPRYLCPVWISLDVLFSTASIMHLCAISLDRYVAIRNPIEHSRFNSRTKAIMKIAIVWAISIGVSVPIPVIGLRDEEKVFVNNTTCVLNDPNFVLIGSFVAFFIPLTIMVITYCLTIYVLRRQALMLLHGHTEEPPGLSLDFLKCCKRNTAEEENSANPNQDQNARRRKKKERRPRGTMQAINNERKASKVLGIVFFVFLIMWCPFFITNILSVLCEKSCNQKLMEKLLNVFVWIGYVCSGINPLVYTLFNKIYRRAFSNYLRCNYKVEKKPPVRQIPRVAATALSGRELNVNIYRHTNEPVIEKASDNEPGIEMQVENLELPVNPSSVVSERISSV
The description is as above.
Method: (§2) All cells were grown adherently in 10 cm plates in a humidified incubator kept at 37° C. and 5% carbon dioxide. […] Transient transfections were used to express 5-HT2A, 5-HT2C, α1A- or α1B-adrenergic receptors, whereas 5-HT7(a)Rs were stably expressed in HEK293 cells. H1Rs were transiently expressed, and D2Rs were stably expressed in CHO cells.
(§3) Transient transfections were performed on cells in the log growth phase (70-90% confluence). […] Each solution was mixed by inversion before combining, mixed by inversion again, and incubated at 37° C. for 30 minutes. Cells were then washed with 1 mL 1×PBS, followed by the gentle addition of 5 mL of transfection cocktail and 5 mL of cell culture medium with 5% (final) dialyzed FBS. Transfections were performed for 48 hours.
(§4) The affinity of ligands was determined via radioligand binding techniques using human recombinant receptors expressed in mammalian clonal cells.
(§5) Saturation binding experiments were performed on membranes expressing 5-HT2A, 5-HT2B, 5-HT2C, or H1Rs in triplicate across 8 concentrations. Competition binding assays were performed in at least triplicate with approximate Kd concentrations of radioligand. Total and nonspecific binding were determined in octet. […] Serial dilutions of unlabeled compound were made in assay buffer at 2.5× the final concentration using 10 mM DMSO stocks (final [DMSO]≤1%). Assays were terminated using rapid filtration via Whatman GF/B Fired Filters (Brandel Inc., Gaithersburg, MD) soaked in 0.3% (w/v) PEI, using an automated Tomtec Harvester 96 (Hamden, CT).
(§6) Filters were washed with 50 mM Tri-HCl (pH=7.4, 4° C.) before being oven dried and placed into scintillation vials containing 1 mL SX18-4 ScintiVerse^TM BD Cocktail (Fisher Chemical, Fair Lawn, NJ).
(§7) GraphPad Prism (La Jolla, CA) version 9.1.1 was used to analyze all experimental data in this work. To analyze data from saturation binding studies, the radioligand counts per minute (cpm) were normalized to fmol/mg protein bound and then fit the data to a ‘specific binding with hill slope’ model. For competitive radioligand displacement studies, a baseline correction was performed by subtracting the mean nonspecific binding value from the radioligand binding values with and without competitor to obtain specific binding values. Specific binding values were then normalized such that total binding in the absence of competitor represented 100% radioligand binding, and the radioactivity associated with each concentration of competitor was a percentage of total binding. The normalized data was then fit to the ‘one-site Fit Ki’ nonlinear regression model.

Assay [2] deals with T4, 5-HT2BR (Homo sapiens, UniProt P41595).
T4 sequence (P41595 whole entry): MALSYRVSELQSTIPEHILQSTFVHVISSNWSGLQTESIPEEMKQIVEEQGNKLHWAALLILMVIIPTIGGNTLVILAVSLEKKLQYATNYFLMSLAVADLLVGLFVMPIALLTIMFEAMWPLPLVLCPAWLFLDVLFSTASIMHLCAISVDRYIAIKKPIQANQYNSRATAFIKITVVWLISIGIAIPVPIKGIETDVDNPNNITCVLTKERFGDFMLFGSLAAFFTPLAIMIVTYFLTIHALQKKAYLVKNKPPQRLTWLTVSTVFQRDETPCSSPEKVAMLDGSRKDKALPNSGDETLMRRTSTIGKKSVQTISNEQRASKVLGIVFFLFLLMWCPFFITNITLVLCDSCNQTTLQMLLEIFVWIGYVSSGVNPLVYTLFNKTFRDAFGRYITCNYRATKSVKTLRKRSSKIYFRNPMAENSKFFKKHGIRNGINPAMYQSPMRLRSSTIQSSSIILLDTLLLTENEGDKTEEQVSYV
Method: as §2, §3, §4, §5, §6, §7
The target in assay [3] is T3, 5-HT2CR.
Method: as §2, §3, §4, §5, §6, §7
Assay [4] has as its target T4, 5-HT2BR. Put plainly: biochemical.
Method: as §2, §3, §4, §5, §6, §7
For assay [5], the target named is T3, 5-HT2CR. The assay is described as follows: biochemical.
Method: as §2, §3, §4, §5, §6, §7
The target of another assay is human wild-type 5-HT2C (Homo sapiens, UniProt P28335). Put plainly: IP-One HTRF IP1 accumulation assay.
The target in assay [6] is T4, 5-HT2BR. The assay is described as follows: Radioligand binding (competitive displacement and saturation), cell membranes.
Method: as §2, §3, §4, §5, §6, §7
Where [7] appears, read: displacement of [^3H]ketanserin, mean of n independent experiments, ± SD where n ≥ 5.

T1 sequence (P28223 whole entry): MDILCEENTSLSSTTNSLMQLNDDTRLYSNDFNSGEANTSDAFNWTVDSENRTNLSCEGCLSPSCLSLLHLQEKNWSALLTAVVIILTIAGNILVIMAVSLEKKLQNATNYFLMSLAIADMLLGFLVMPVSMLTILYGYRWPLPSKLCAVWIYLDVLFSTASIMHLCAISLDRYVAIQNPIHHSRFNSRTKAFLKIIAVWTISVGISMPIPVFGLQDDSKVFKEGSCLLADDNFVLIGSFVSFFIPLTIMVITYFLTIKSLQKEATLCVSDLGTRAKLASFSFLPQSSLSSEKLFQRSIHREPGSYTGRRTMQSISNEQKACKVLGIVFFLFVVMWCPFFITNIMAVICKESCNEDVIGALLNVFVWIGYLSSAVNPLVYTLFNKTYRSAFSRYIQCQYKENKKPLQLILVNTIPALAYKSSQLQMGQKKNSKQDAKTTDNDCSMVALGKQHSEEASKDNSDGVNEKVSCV
D231F^5.35 5-HT2AR, sequence (P28223 whole entry D231F): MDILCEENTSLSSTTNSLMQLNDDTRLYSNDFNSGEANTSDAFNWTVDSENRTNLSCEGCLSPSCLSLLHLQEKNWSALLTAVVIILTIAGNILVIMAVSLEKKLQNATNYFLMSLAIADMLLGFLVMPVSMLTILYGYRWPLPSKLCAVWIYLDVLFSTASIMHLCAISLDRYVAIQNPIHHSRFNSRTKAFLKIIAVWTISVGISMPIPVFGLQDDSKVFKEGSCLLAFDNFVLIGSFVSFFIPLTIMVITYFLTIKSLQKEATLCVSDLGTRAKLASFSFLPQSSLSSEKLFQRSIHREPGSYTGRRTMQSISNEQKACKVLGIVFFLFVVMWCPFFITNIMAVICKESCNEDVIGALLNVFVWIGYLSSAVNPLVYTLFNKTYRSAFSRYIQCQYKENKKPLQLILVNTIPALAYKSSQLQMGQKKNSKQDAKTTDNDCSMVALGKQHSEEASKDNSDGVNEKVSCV
Method for D231F^5.35 5-HT2AR: as §5
Site directed mutagenesis experiments were performed using 5′-phosphorylated, PAGE-purified custom primers (Life Technologies, Carlsbad CA) and the Quikchange Site-Directed Mutagenesis kit (Agilent, Santa Clara CA) according to the manufacturer's protocol. Reactions were performed in thin-walled PCR tubes using a TOne Gradient 96 Thermal Cycler (Biometra). Following Dpn1 digestion, 2 μL of the PCR product mixture was transformed into 50 μL XL1-Blue competent cells using a 45 second pulse of heat in a 42° C. water bath. The transformed bacteria were then incubated for 1 hour at 37° C. in 0.5 mL of LB broth before being plated on LB-agar plates and incubated overnight at 37° C. […]
Method for human wild-type 5-HT2C: as §3
The pharmacological parameters (e.g., pEC50, pKb, pIC50, Imax) of agonist and antagonist-mediated signal transduction through Gaq-coupled 5-HT2A, 5-HT2B, 5-HT2C, and H1Rs was quantified using the Cisbio (Bedford, MA) IP-One homogeneous time resolved fluorescence (HTRF) immunoassay. The protocol used was consistent with that recommended by the manufacturer for suspension cells in 384-well plate format, with minor modifications. […] Cells (˜2,000 cells/μL, >90% viability, determined by the Corning® Cell Counter) were resuspended in the manufacturer's stimulation buffer (pH=7.4, 37° C.) modified to include 0.1% bovine serum albumin stabilizer (PerkinElmer, part #: CR84-100) and added to a white 384-well OptiPlate (PerkinElmer). Next, stimulation buffer, or 2× compound diluted in stimulation buffer, was added to each well. […] Cells were then incubated in the dark for two hours at 37° C. to ensure equilibrium was obtained. Plates were covered with an aluminum foil seal to prevent evaporation.
Following incubation, the manufacturer's lysis solution (detection buffer) containing inositol monophosphate (IP1) covalently bound to a fluorescent acceptor dye (d2) was added to each well. This process generated a homogenous mixture of cellular and d2-labeled IP1, in a ratio dependent on the concentration- and activity-dependent efficacy of test ligands to modulate cellular IP1 levels. Next, detection buffer containing an anti-IP1 antibody covalently bound to a terbium-cryptate, which serves as a fluorescent acceptor, was added to each well. A one-hour incubation at room temperature was used to allow competitive interactions between cellular and d2-labeled IP1 to equilibrate with anti-IP1-cryptate. Time-resolved fluorescent resonance energy transfer (TR-FRET) was then quantified by a Synergy H1 plate reader equipped with a HTRF filter cube (BioTek).
The functional activity of each compound was determined by incubating cells expressing recombinant receptors with or without a compound of interest in parallel with well containing only buffer and 8 known concentrations of IP1 to generate a standard curve for each experiment. The IP1 concentration in cell-containing wells was then interpolated using nonlinear regression and the ‘log(inhibitor) vs. response (three parameters)’ model in Prism. To control for variation between assays, the resulting concentrations were transformed into molar units and change from basal was calculated using the following equation (Equation 1), where B is the basal concentration of IP, and Y is the concentration of IP generated by cells incubated with compound.
The same model was used to calculate the IC50 of inverse agonists in the absence of A. In contrast, the EC50 was derived from a log([agonist]) vs. response-variable slope (four parameters)’ model to simultaneously obtain K. Each Kb, IC50, and EC50 value was logarithmically transformed into the pKb, pIC50, and pEC50, respectively for ease of presentation and statistical analyses.

For the compound `O=C(CCCN1CCC2(CC1)C(=O)NCN2c1ccccc1)c1ccc(F)cc1` [[^3H]Spiperone], the “specific binding to D231F^5.35 5-HT2ARs” value at D231F^5.35 5-HT2AR is “no specific binding is detected”.
As for `CN(C)[C@@H]1Cc2ccccc2[C@H](c2cccc(-c3ccncc3)c2)C1` (single isomer, unassigned) [(2R,4R)-3e, Cis-4-(3-(pyridin-4-yl)phenyl)-N,N-dimethyl-1,2,3,4-tetrahydronaphthalen-2-amine], the Ki is 43.7 nM at 5-HT2AR (setting [7]) and 22.4 nM on H1R (pKi H1R, displacement of [^3H]mepyramine, mean of n independent experiments, ± SD where n ≥ 5). In addition, the “pKi 5-HT2CR” value on 5-HT2CR [1] is on record as 5.90^(2) 5.99-5.80 7.37^(3) 7.44-7.27 5.61^(2) 5.69-5.54 6.26^(2) 6.42-6.10.
Turning to `CN(C)[C@@H]1Cc2ccccc2[C@H](c2cccc(-c3ccccc3)c2)C1` [(2S,4S)-3f, (2S,4S)-cis-4-([1,1′-biphenyl]-3-yl)-N,N-dimethyl-1,2,3,4-tetrahydronaphthalen-2-amine], the Ki at 5-HT2BR [2] was 407 nM; at 5-HT2CR [3], 151 nM.
As for `CN(C)[C@@H]1Cc2ccccc2[C@H](c2cccc(-c3ccncc3)c2)C1` (single isomer, unassigned) [(2S,4S)-3e, Cis-4-(3-(pyridin-4-yl)phenyl)-N,N-dimethyl-1,2,3,4-tetrahydronaphthalen-2-amine], the “pKi 5-HT2AR” value on 5-HT2AR is on record as 6.06^(2) 6.14-5.98 8.13^(3) 8.51-7.82 5.81^(2) 6.01-5.62 7.36^(2) 7.48-7.24. Besides, the “pKi 5-HT2CR” value at 5-HT2CR [1] is on record as 5.90^(2) 5.99-5.80 7.37^(3) 7.44-7.27 5.61^(2) 5.69-5.54 6.26^(2) 6.42-6.10.
With `CN(C)[C@@H]1Cc2ccccc2[C@@H](c2cccc(-c3ccncc3)c2)C1` (single isomer, unassigned) [(2R,4S)-2e, Trans-4-(3-(pyridin-4-yl)phenyl)-N,N-dimethyl-1,2,3,4-tetrahydronaphthalen-2-amine], on 5-HT2AR, the “pKi 5-HT2AR” value was 6.06^(2) 6.14-5.98 8.13^(3) 8.51-7.82 5.81^(2) 6.01-5.62 7.36^(2) 7.48-7.24. Further, the “pKi 5-HT2CR” value on 5-HT2CR [1] was 5.90^(2) 5.99-5.80 7.37^(3) 7.44-7.27 5.61^(2) 5.69-5.54 6.26^(2) 6.42-6.10.
Regarding `CN(C)[C@@H]1Cc2ccccc2[C@@H](c2cccc(-c3cccs3)c2)C1` (single isomer, unassigned) [(2S,4R)-2c, Trans-4-(3-(thiophen-2-yl)phenyl)-N,N-dimethyl-1,2,3,4-tetrahydronaphthalen-2-amine], the Ki was 2.14 nM at 5-HT2AR; 1.15 nM on H1R (read-out: pKi H1R (converted)); 79.4 nM on 5-HT2BR [4]; 3.8 nM at 5-HT2CR [5]; 0.832 nM on 5-HT2CR [1] (pKi at the 5-HT2CR, single experiment excluded from the reported data, excluded: excessive or incomplete radioligand displacement). Moreover, the IC50 on human wild-type 5-HT2C was 251 nM. Besides, at human wild-type 5-HT2C (below basal), the “inverse agonist efficacy (Imax) at 5-HT2CRs” value was found to be 58%.
For `CN(C)[C@@H]1Cc2ccccc2[C@H](c2cccc(Br)c2)C1` (single isomer, unassigned) [(2S,4S)-3a, Cis-4-(3-bromophenyl)-N, N-dimethyl-1,2,3,4-tetrahydronaphthalen-2-amine], the “pKi 5-HT2AR” value at 5-HT2AR is 6.40^(2) 6.41-6.40 7.50^(3) 7.74-7.33. On 5-HT2BR [4], this compound showed a Ki of 389 nM. For the same compound, the “pKi 5-HT2CR” value on 5-HT2CR [1] is 6.71^(3) 6.93-6.47 7.24^(4) 7.44-7.06.
As for `CN(C)[C@H]1Cc2ccccc2[C@H](c2cccc(-c3cccs3)c2)C1` [(2R,4S)-2c, (2R,4S)-trans-4-(3-(thiophen-2-yl)phenyl)-N,N-dimethyl-1,2,3,4-tetrahydronaphthalen-2-amine], the Ki on 5-HT2AR is 19.5 nM; on 5-HT2BR [2] it was 214 nM; at 5-HT2CR [3], 33.1 nM. The “pKi H1R” value at H1R is 6.90. On human wild-type 5-HT2C (FIG. 7B), the “agonist activity at 5-HT2CRs, concentration-response” value is given as “no consistent effect on IP1-accumulation”.
Regarding `CN(C)[C@@H]1Cc2ccccc2[C@H](c2cccc(-c3ccccc3F)c2)C1` (single isomer, unassigned) [(2R,4R)-3g, Cis-4-(2′-fluoro-[1,1′-biphenyl]-3-yl)-N,N-dimethyl-1,2,3,4-tetrahydronaphthalen-2-amine], the Ki on 5-HT2AR (setting [7]) was 2.04 nM. Also, at H1R, the “pKi H1R” value was 6.93^(2) 7.02-6.84 8.75^(4) 9.1-8.62 ND 6.54^(2) 6.67-6.40. Further, at 5-HT2BR [6], the “pKi 5-HT2BR” value is 7.36^(2) 7.36-7.35 7.09^(3) 7.23-6.90 6.53^(3) 6.71-6.30 6.33^(2) 6.49-6.17.
As to `CN(C)[C@@H]1Cc2ccccc2[C@H](c2cccc(-c3ccccc3F)c2)C1` (single isomer, unassigned) [(2S,4S)-3g, Cis-4-(2′-fluoro-[1,1′-biphenyl]-3-yl)-N,N-dimethyl-1,2,3,4-tetrahydronaphthalen-2-amine], the Ki at 5-HT2AR (setting [7]) is 40.7 nM. The “pKi 5-HT2BR” value at 5-HT2BR [6] is recorded as 7.36^(2) 7.36-7.35 7.09^(3) 7.23-6.90 6.53^(3) 6.71-6.30 6.33^(2) 6.49-6.17.

Source of the values: US20240327353A1.
